# Literature values in patent publication US20130053433A1, “FATTY ACID DERIVATIVES AND ANALOGS OF DRUGS” (The University of North Carolina at Chapel Hill, priority 2010, published 2013).
# Biological target: albumin (Homo sapiens, UniProt P02768)
# Sequence (P02768 25-609): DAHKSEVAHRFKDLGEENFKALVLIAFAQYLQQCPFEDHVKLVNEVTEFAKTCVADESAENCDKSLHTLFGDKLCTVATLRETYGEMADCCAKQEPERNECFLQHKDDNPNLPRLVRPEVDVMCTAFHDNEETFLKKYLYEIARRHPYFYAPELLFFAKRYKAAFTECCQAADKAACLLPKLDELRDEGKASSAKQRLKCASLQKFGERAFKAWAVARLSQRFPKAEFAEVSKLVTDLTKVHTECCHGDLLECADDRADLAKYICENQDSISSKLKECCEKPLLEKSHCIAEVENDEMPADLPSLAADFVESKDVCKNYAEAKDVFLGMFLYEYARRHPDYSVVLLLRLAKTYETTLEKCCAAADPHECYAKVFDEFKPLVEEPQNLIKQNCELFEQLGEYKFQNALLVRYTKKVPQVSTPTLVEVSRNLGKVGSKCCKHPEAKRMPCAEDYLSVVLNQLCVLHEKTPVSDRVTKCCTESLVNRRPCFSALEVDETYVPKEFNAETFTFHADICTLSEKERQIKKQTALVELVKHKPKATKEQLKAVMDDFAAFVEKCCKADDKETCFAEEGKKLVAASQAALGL
SMILES,"Kd for albumin (depending on total fatty acid concentration, Curry, Brick et al. 1999)","Kd (read-out: dissociation constant Kd for albumin, Paal, Muller et al. 2001)"
CCCCCCCCCCCCCCCCCC(=O)O [stearic acid],in the range of μM to nM,–
"CC(=O)O[C@H]1C(=O)[C@@]2(C)[C@H]([C@H](OC(=O)c3ccccc3)[C@]3(O)C[C@H](OC(=O)[C@H](O)[C@@H](NC(=O)c4ccccc4)c4ccccc4)C(C)=C1C3(C)C)[C@]1(OC(C)=O)CO[C@@H]1C[C@@H]2O [PTX, paclitaxel]",–,~10 µM
